Experimental data published in PubChem BioAssay AID248 (DTP/NCI, 2004).
Several values for one entry are separate records, joined by “and”; a condition that tells them apart may be missing. Identical values can stand only once. Toxic doses and inconclusive results are not listed.

Tested on: L1210 leukemia ip in BDF1 mice, survival T/C
Test: NCI In Vivo Anticancer Drug Screen. Data for tumor model L1210 Leukemia (intraperitoneal) in B6D2F1 (BDF1) mice
Details: endpoint: mean survival time, higher = longer survival
Method in brief: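 Read-out is survival time, reported as the treated-group measurement over the vehicle-control measurement.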

O=c1cnn(C2OC(CO)C(O)C2O)c(=O)[nH]1 (stereo not drawn)
T/C (dose: 12.5 mg/kg/injection, schedule: Q#A X Z (ip), vehicle: saline): 160 % of control
T/C (dose: 25.0 mg/kg/injection, schedule: Q01DX Z (im), vehicle: saline): 150 % of control
T/C (dose: 25.0 mg/kg/injection, schedule: Q01DX Z (ip), vehicle: methylcellulose (MC)): 120 % of control
T/C (dose: 25.0 mg/kg/injection, schedule: Q01DX Z (ip), vehicle: saline): 156 % of control
T/C (dose: 25.0 mg/kg/injection, schedule: Q#A X Z (ip), vehicle: saline): 156 % of control
T/C (dose: 32.0 mg/kg/injection, schedule: Q01DX009 (oral), vehicle: saline): 151 % of control
T/C (dose: 50.0 mg/kg/injection, schedule: Q01DX010 (ip), vehicle: saline): 120 % of control
T/C (dose: 50.0 mg/kg/injection, schedule: Q01DX Z (im), vehicle: saline): 156 % of control
T/C (dose: 50.0 mg/kg/injection, schedule: Q01DX Z (ip), vehicle: methylcellulose (MC)): 120 % of control
T/C (dose: 50.0 mg/kg/injection, schedule: Q01DX Z (ip), vehicle: saline): 159 % of control
T/C (dose: 50.0 mg/kg/injection, schedule: Q01DX Z (oral), vehicle: other): 158 % of control
T/C (dose: 50.0 mg/kg/injection, schedule: Q#A X Z (ip), vehicle: saline): 164 % of control
T/C (dose: 75.0 mg/kg/injection, schedule: Q01DX005 (ip), vehicle: saline): 112 % of control
T/C (dose: 88.0 mg/kg/injection, schedule: Q01DX Z (ip), vehicle: methylcellulose (MC)): 122 % of control
T/C (dose: 100.0 mg/kg/injection, schedule: Q01DX010 (ip), vehicle: saline): 123 % of control
T/C (dose: 100.0 mg/kg/injection, schedule: Q01DX Z (ip), vehicle: methylcellulose (MC)): 116 % of control
T/C (dose: 100.0 mg/kg/injection, schedule: Q01DX Z (oral), vehicle: saline): 151 % of control
T/C (dose: 100.0 mg/kg/injection, schedule: Q#A X Z (ip), vehicle: saline): 176 % of control
T/C (dose: 128.0 mg/kg/injection, schedule: Q03HX016 (oral), vehicle: saline): 116 % of control
T/C (dose: 132.0 mg/kg/injection, schedule: Q01DX Z (ip), vehicle: methylcellulose (MC)): 117 % of control
T/C (dose: 150.0 mg/kg/injection, schedule: Q01DX005 (ip), vehicle: saline): 115 % of control
T/C (dose: 150.0 mg/kg/injection, schedule: Q01DX Z (oral), vehicle: saline): 172 % of control
T/C (dose: 150.0 mg/kg/injection, schedule: Q## X003 (ip), vehicle: saline): 105 % of control
T/C (dose: 152.0 mg/kg/injection, schedule: Q## X024 (ip), vehicle: saline): 123 % of control
T/C (dose: 180.0 mg/kg/injection, schedule: Q01DX009 (ip), vehicle: saline): 120 % of control
T/C (dose: 200.0 mg/kg/injection, schedule: Q#A X Z (ip), vehicle: saline): 176 % of control
T/C (dose: 256.0 mg/kg/injection, schedule: Q03HX016 (ip), vehicle: saline): 153 % of control
T/C (dose: 300.0 mg/kg/injection, schedule: Q01DX005 (ip), vehicle: saline): 118 % of control
T/C (dose: 300.0 mg/kg/injection, schedule: Q01DX009 (oral), vehicle: saline): 123 % of control
T/C (dose: 300.0 mg/kg/injection, schedule: Q01DX Z (oral), vehicle: saline): 159 % of control
T/C (dose: 300.0 mg/kg/injection, schedule: Q03DX Z (ip), vehicle: other): 119 % of control
T/C (dose: 300.0 mg/kg/injection, schedule: Q## X003 (ip), vehicle: saline): 106 % of control
T/C (dose: 304.0 mg/kg/injection, schedule: Q## X024 (ip), vehicle: saline): 151 % of control
T/C (dose: 350.0 mg/kg/injection, schedule: Q01DX001 (ip), vehicle: saline): 109 % of control
T/C (dose: 350.0 mg/kg/injection, schedule: Q07DX Z (ip), vehicle: saline): 109 % of control
T/C (dose: 400.0 mg/kg/injection, schedule: Q01DX Z (oral), vehicle: other): 191 % of control
T/C (dose: 400.0 mg/kg/injection, schedule: Q#A X Z (ip), vehicle: saline): 158 % of control
T/C (dose: 512.0 mg/kg/injection, schedule: Q03HX016 (ip), vehicle: saline): 162 % of control
T/C (dose: 512.0 mg/kg/injection, schedule: Q03HX016 (oral), vehicle: saline): 158 % of control
T/C (dose: 600.0 mg/kg/injection, schedule: Q01DX001 (ip), vehicle: saline): 101 % of control
T/C (dose: 600.0 mg/kg/injection, schedule: Q01DX001 (oral), vehicle: saline): 109 % of control
T/C (dose: 600.0 mg/kg/injection, schedule: Q01DX001 (sc), vehicle: saline): 106 % of control
T/C (dose: 600.0 mg/kg/injection, schedule: Q01DX005 (ip), vehicle: saline): 121 % of control
T/C (dose: 600.0 mg/kg/injection, schedule: Q01DX009 (oral), vehicle: saline): 118 % of control
T/C (dose: 600.0 mg/kg/injection, schedule: Q01DX Z (oral), vehicle: saline): 154 % of control
T/C (dose: 600.0 mg/kg/injection, schedule: Q## X002 (ip), vehicle: saline): 98 % of control
T/C (dose: 600.0 mg/kg/injection, schedule: Q## X003 (ip), vehicle: saline): 107 % of control
T/C (dose: 600.0 mg/kg/injection, schedule: Q## X008 (ip), vehicle: saline): 119 % of control
T/C (dose: 600.0 mg/kg/injection, schedule: Q## X016 (ip), vehicle: saline): 117 % of control
T/C (dose: 700.0 mg/kg/injection, schedule: Q01DX001 (ip), vehicle: saline): 113 % of control and 116 % of control
T/C (dose: 700.0 mg/kg/injection, schedule: Q07DX Z (ip), vehicle: other): 111 % of control
T/C (dose: 700.0 mg/kg/injection, schedule: Q07DX Z (ip), vehicle: saline): 113 % of control
T/C (dose: 800.0 mg/kg/injection, schedule: Q01DX009 (ip), vehicle: saline): 110 % of control
T/C (dose: 800.0 mg/kg/injection, schedule: Q01DX Z (im), vehicle: saline): 151 % of control
T/C (dose: 800.0 mg/kg/injection, schedule: Q## X000 (other), vehicle: other): 107 % of control
T/C (dose: 800.0 mg/kg/injection, schedule: Q#A X Z (ip), vehicle: saline): 101 % of control
T/C (dose: 1024.0 mg/kg/injection, schedule: Q03HX016 (ip), vehicle: saline): 176 % of control
T/C (dose: 1024.0 mg/kg/injection, schedule: Q03HX016 (oral), vehicle: saline): 161 % of control
T/C (dose: 1200.0 mg/kg/injection, schedule: Q01DX001 (oral), vehicle: saline): 112 % of control
T/C (dose: 1200.0 mg/kg/injection, schedule: Q01DX001 (sc), vehicle: saline): 110 % of control
T/C (dose: 1200.0 mg/kg/injection, schedule: Q01DX009 (ip), vehicle: saline): 98 % of control
T/C (dose: 1200.0 mg/kg/injection, schedule: Q01DX009 (oral), vehicle: saline): 100 % of control
T/C (dose: 1200.0 mg/kg/injection, schedule: Q01DX009 (sc), vehicle: saline): 94 % of control
T/C (dose: 1200.0 mg/kg/injection, schedule: Q01DX Z (oral), vehicle: saline): 104 % of control
T/C (dose: 1200.0 mg/kg/injection, schedule: Q03DX Z (ip), vehicle: other): 158 % of control
T/C (dose: 1200.0 mg/kg/injection, schedule: Q## X002 (ip), vehicle: saline): 110 % of control
T/C (dose: 1200.0 mg/kg/injection, schedule: Q## X003 (ip), vehicle: saline): 114 % of control
T/C (dose: 1200.0 mg/kg/injection, schedule: Q## X008 (ip), vehicle: saline): 123 % of control
T/C (dose: 1200.0 mg/kg/injection, schedule: Q## X024 (ip), vehicle: saline): 155 % of control
T/C (dose: 1400.0 mg/kg/injection, schedule: Q01DX001 (ip), vehicle: saline): 115 % of control and 116 % of control
T/C (dose: 1400.0 mg/kg/injection, schedule: Q07DX Z (ip), vehicle: other): 117 % of control
T/C (dose: 1600.0 mg/kg/injection, schedule: Q01DX009 (ip), vehicle: saline): 92 % of control
T/C (dose: 1600.0 mg/kg/injection, schedule: Q01DX Z (oral), vehicle: other): 96 % of control
T/C (dose: 1600.0 mg/kg/injection, schedule: Q01DX Z (oral), vehicle: saline): 98 % of control
T/C (dose: 2048.0 mg/kg/injection, schedule: Q03HX016 (ip), vehicle: saline): 174 % of control
T/C (dose: 2400.0 mg/kg/injection, schedule: Q01DX001 (oral), vehicle: saline): 117 % of control
T/C (dose: 2400.0 mg/kg/injection, schedule: Q01DX001 (sc), vehicle: saline): 115 % of control
T/C (dose: 2400.0 mg/kg/injection, schedule: Q03DX Z (ip), vehicle: other): 151 % of control
T/C (dose: 2400.0 mg/kg/injection, schedule: Q## X002 (ip), vehicle: saline): 107 % of control
T/C (dose: 2400.0 mg/kg/injection, schedule: Q## X024 (ip), vehicle: saline): 153 % of control
T/C (dose: 2800.0 mg/kg/injection, schedule: Q01DX001 (ip), vehicle: saline): 121 % of control
T/C (dose: 2800.0 mg/kg/injection, schedule: Q07DX Z (ip), vehicle: other): 124 % of control
T/C (dose: 3200.0 mg/kg/injection, schedule: Q01DX Z (im), vehicle: saline): 87 % of control
